Assay results from ChEMBL document CHEMBL5154674, “ARN25068, a versatile starting point towards triple GSK-3β/FYN/DYRK1A inhibitors to tackle tau-related neurological disorders” (Eur J Med Chem, 2022).

Tested on: U2OS
Assay: Cytotoxic effect on human U2OS cells transfected with Tau0N4R-TM-tGFP at 25 to 100 uM by fluorescence based microscopy
Format: toxicity, cell-based
Conditions: dose 25-100 µM

c1ccc(CNc2nc(Nc3cc(C4CC4)[nH]n3)c3sccc3n2)cc1
Activity: Toxic
